Measurements as given in article PMC5330312, “Design and engineering of water-soluble light-harvesting protein maquettes” (Chemical Science, 2016).
Blank lines part the entries; values can stand above or below the compound they belong to.

Tests used:
[1] = test system: His-free control maquette; test: Absorption spectra of porphyrin with His-free control maquette; format: binding; settings: 4 μM porphyrin, 2 μM maquette
Description: (§1) The structural requirements for tetrapyrrole self-assembly in aqueous solution were first tested with Zn tetraphenyl porphyrins. The solubility in polar and non-polar environments was adjusted through combinations of hydrophobic and hydrophilic groups at the meso positions. Zn tetrapyrrole pigments discussed in this text are abbreviated with bold numbers, with full chemical names given in the Experimental section and structures illustrated in the figures. […] Thus, one non-polar edge of a Zn porphyrin was sufficient to provide facile binding.
(§2) Blue, green and red spectra correspond to no maquette, His-free maquette or His-containing maquette, respectively. Panel (A) and (B) show spectra for 4 μM porphyrins (1) or (2) respectively with 2 μM maquette, when present.
(§3) Protein solutions were prepared in CHES buffer (20 mM, 150 mM KCl, pH 9.0). Binding was monitored by UV/Vis Soret band absorbance on a Varian Cary-50 spectrophotometer at room temperature in a 1 cm path quartz cuvette. Secondary structure was monitored by CD spectroscopy (Aviv Model 410) at 25 °C with a 1 mm path quartz cuvette. Thermal denaturation was followed by monitoring the ellipticity at 222 nm every 5 °C after 15 minutes of equilibration. Melting temperatures were calculated using a Boltzmann equation with one term for each observed transition.

His-containing maquette = test: Absorption spectra of porphyrin with His-containing maquette; format: binding; settings: 4 μM porphyrin, 2 μM maquette
Description: as §1, §2, §3

[2] = test system: His-containing four-helix maquette (histidines at positions 7 and 112); test: Cofactor binding titration into His maquette, UV/Vis spectra analysed by SVD; settings: for comparative binding affinity, in words: maquette, Fig. 4; for Kd: CHES buffer pH 9.0, 25 °C, SVD fit of spectral titration, read-out: Kd (dissociation constant for each His site)
Description: To determine the acceptable range and pattern of hydrophobic vs. hydrophilic perimeters for Zn porphyrins, we synthesized all permutations of phenyl and carboxyphenyl tetra meso substituents (Fig. 3 and 4). The visible spectral changes that occurred as these porphyrins were titrated into a His maquette solution were fitted to a simple binding model with a single dissociation constant (K d) for each His site using singular value decomposition.[16] […] At least one hydrophobic and one hydrophilic group substitution is necessary for porphyrin ligating to the maquettes with nanomolar affinities.
as §3
Pigment stock solutions were weighed out and solubilized in dimethylsulfoxide to give concentrations of 1 mM Zn porphyrins, 1 mM chlorin (11), 500 μM chlorin (12), and 2 mM chlorin (13). Binding of Zn porphyrins shift the Soret peak from 422 nm to 432 nm. Binding of chlorins shift the Soret band from 415 nm to 423 nm for (12), 411 nm to 425 nm for (13), and 409 nm to 417 nm for (11). Dissociation constants (K d values) were determined as follows. To 1 ml of protein solution at 25 °C, 1 μl additions of 0.2 (porphyrin) or 0.1 (chlorin) equivalent aliquots were added successively to obtain a spectrum from 300 to 700 nm. At 1 equivalent of cofactor the DMSO concentration is 1%. Titrations typically ended at 4 equivalents of cofactor. […] The amplitudes of the first two principle components as a function of total pigment added fit well to a mathematical model of a single dissociation constant for each protein binding site to generate fit spectral extinction coefficients at each wavelength for the unbound and bound pigment spectra as well as values and error estimates for the dissociation constants.

protein maquette = test: Stopped-flow mixing of tetrapyrrole and maquette (binding kinetics); settings: for binding speed, in words: stopped-flow mixing
Procedure: Tetrapyrrole and protein were added to separate syringes of an OLIS RSM 1000 stopped flow spectrophotometer, which takes a full visible spectrum every millisecond through a 2 cm flow cell after rapid (∼2 ms deadtime) mixing. Temperature was controlled with a Fischer-Scientific IsoTemp 3031 water bath. Individual wavelengths were selected for further kinetic analysis. All experiments were performed in triplicate, and the data were averaged together for further analysis.
Title: Design and engineering of water -soluble light-harvesting protein maquettes Goutham Kodali, Joshua A. Mancini, Lee A. Solomon, Tatiana Esipova, Nicholas Roach, Christopher J. Hobbs, Pawel Wagner, Olga A. Mass, Kunche Aravindu, Jonathan E. Barnsley, Keith C. Gordon, David L. Officer, P. Leslie Dutton and Christopher C. Moser*
Figure S1: Proliferating carbox ylic groups on the 15- porph yrin substituent leads to faster […]
Conditions: 2 µ M of protein maquette in 20 mM CHES, 150 mM KCl mixed with one equivalent of porphyrin, either 5- phen yl-15-carbox y phen ylporph yrin [9] (red) or 5- phen yl -15- Newkome phen ylporphyrin [10] (green).
Normalized absorbance i ncreas e with time in seco nds.

maquette = test: Thermal denaturation of maquette by circular dichroism at 222 nm; settings: 2 μM maquette with 2 equivalents of cofactor
Procedure: Fig. 7 Thermal stability of the maquette increased upon tetrapyrrole binding. Circular dichroism at 222 nm monitors alpha helical folding for 2 μM maquette without (blue) or with (red) 2 equivalents of (11) as a function of temperature.
as §3

[3] = Water solubility of the tetrapyrrole (qualitative); format: physicochemical

Compound: O=S(=O)([O-])c1ccc(-c2c3nc(c(-c4ccc(S(=O)(=O)[O-])cc4)c4ccc([n-]4)c(-c4ccc(S(=O)(=O)[O-])cc4)c4nc(c(-c5ccccc5)c5ccc2[n-]5)C=C4)C=C3)cc1.O=S(=O)([O-])c1ccc(-c2c3nc(c(-c4ccc(S(=O)(=O)[O-])cc4)c4ccc([n-]4)c(-c4ccc(S(=O)(=O)[O-])cc4)c4nc(c(-c5ccccc5)c5ccc2[n-]5)C=C4)C=C3)cc1.[Zn+2].[Zn+2].[Zn+2].[Zn+2].[Zn+2] [compound 2, Zn(II) 5,10,15-tri(4-sulphonatophenyl)-5-phenylporphyrin]
association with His-free maquette (Soret spectral change) [1]: partial association of the tetrapyrrole with the maquette
association with His-containing maquette (Soret spectral change) (His-containing maquette): indicative of histidine ligation

Compound: O=C(O)c1ccc(-c2c3nc(c(-c4ccccc4)c4ccc([n-]4)c(-c4ccccc4)c4nc(c(-c5ccccc5)c5ccc2[n-]5)C=C4)C=C3)cc1.[Zn+2] [compound 4, Zn(II) 5-4-(carboxyphenyl)-10,15,20-triphenylporphyrin]
affinity relative to (5), (6) and (7) ([2]; His maquette, estimated): about two orders of magnitude tighter

Compound: O=C(O)c1ccc(-c2c3nc(c(-c4ccc(C(=O)O)cc4)c4ccc([n-]4)c(-c4ccc(C(=O)O)cc4)c4nc(c(-c5ccc(C(=O)O)cc5)c5ccc2[n-]5)C=C4)C=C3)cc1.[Zn+2] [compound 8, Zn(II) 5,10,15,20-tetra(4-carboxyphenyl)porphyrin]
comparative binding affinity, in words [2]: too weak to measure accurately

Compound: C1=Cc2nc1c(-c1ccccc1)c1ccc([n-]1)c(-c1ccccc1)c1nc(c(-c3ccccc3)c3ccc([n-]3)c2-c2ccccc2)C=C1.[Zn+2] [compound 3, Zn(II) 5,10,15,20-tetraphenylporphyrin, reference compound]
comparative binding affinity, in words [2]: too weak to measure accurately

Compound: O=S(=O)([O-])c1ccc(-c2c3nc(c(-c4ccc(S(=O)(=O)[O-])cc4)c4ccc([n-]4)c(-c4ccc(S(=O)(=O)[O-])cc4)c4nc(c(-c5ccc(S(=O)(=O)[O-])cc5)c5ccc2[n-]5)C=C4)C=C3)cc1.[Zn+2].[Zn+2].[Zn+2] [compound 1, Zn(II) 5,10,15,20-tetra(4-sulphonatophenyl)porphyrin]
association with His-free maquette (Soret spectral change) [1]: does not associate with either maquette
association with His-containing maquette (Soret spectral change) (His-containing maquette): does not associate with either maquette
water solubility, in words [3]: highly water-soluble

Continued, in another order:

time for binding equilibrium to reach completion (protein maquette; stopped flow, 2 µM maquette, one equivalent of porphyrin, 20 mM CHES, 150 mM KCl): 20 min
Compound: O=C(O)c1ccc(-c2c3nc(cc4ccc([n-]4)c(-c4ccccc4)c4nc(cc5ccc2[n-]5)C=C4)C=C3)cc1.[Zn+2] [compound 9, Zn(II) 5-phenyl-15-(p-carboxyphenyl)porphyrin]

thermal mid point transition of α-helical structure (Tm) upon chlorin binding (maquette; 46 °C without cofactor): 61 °C
Kd ([2]; His maquette): 80 ± 10 nM
Compound: Cc1ccc(-c2c3nc(cc4ccc([nH]4)c(-c4ccc(C(=O)O)cc4)c4nc(cc5ccc2[nH]5)C(C)(C)C4)C=C3)cc1 [compound 11, 15-(4-carboxyphenyl)-17,18-dihydro-18,18-dimethyl-5-p-tolylporphyrin]
structure stabilization corresponding to the Tm shift (maquette): 6.8 kcal mol^–1
binding speed, in words (protein maquette): binds much faster than the similarly substituted porphyrin (9)

Kd ([2]; His maquette): 4 ± 3 nM
Compound: C=Cc1c(C)c2[n]3c1=CC1=[N+]4C(=Cc5c(C)c6c7[n]5[Zn-2]34[N+]3=C(C=2)[C@@H](C)[C@H](CCC(=O)O)C3=C7[C@@H](C(=O)OC)C6=O)C(CC)=C1C (stereo partly drawn) [compound 13, Zn pheophorbide a]

Kd ([2]; His maquette): 250 ± 47 nM
binding speed, in words (protein maquette): few ms timescale
Compound: Zn(II) 5-phenyl-15-(p-carboxyphenyl)porphyrin with first generation Newkome dendrimer [compound 10]
water solubility, in words [3]: substantially increased the water solubility

lowering of affinity relative to (11) ([2]; His maquette, Kd of (12) vs (11)): 4.5 fold
Compound: CC1(C)Cc2nc1cc1cc(C#Cc3ccccc3)c(cc3nc(cc4ccc([n-]4)c2-c2ccc(C(=O)O)cc2)C=C3)[n-]1.[Zn+2] [compound 12, Zn(II) 15-(4-carboxyphenyl)-17,18-dihydro-18,18-dimethyl-3-(phenylethynyl)porphyrin]
